Measurements from patent US20110306623A1, “NOVEL COMPOUNDS COMPRISING A 3-(5-ALKOXYPYRIMIDIN-2-YL) PYRIMIDIN-4(3H)-ONE STRUCTURE AND DRUGS THAT COMPRISE SAME” (KOWA COMPANY, LTD., priority 2009, published 2011).

Tests used:
human PPAR 2 = molecular target: T1, human PPAR 2 (Homo sapiens, UniProt P37231); assay: PPAR activating activity, Gal4-PPAR chimera luciferase transfection assay using COS7 cells; format: cell-based; settings: relative to Rosiglitazone
T1 construct: the amino acids 182 to 505 of human PPAR 2; expressed in transfected cells; host or cells: COS7 cells
T1 sequence (P37231 182-505): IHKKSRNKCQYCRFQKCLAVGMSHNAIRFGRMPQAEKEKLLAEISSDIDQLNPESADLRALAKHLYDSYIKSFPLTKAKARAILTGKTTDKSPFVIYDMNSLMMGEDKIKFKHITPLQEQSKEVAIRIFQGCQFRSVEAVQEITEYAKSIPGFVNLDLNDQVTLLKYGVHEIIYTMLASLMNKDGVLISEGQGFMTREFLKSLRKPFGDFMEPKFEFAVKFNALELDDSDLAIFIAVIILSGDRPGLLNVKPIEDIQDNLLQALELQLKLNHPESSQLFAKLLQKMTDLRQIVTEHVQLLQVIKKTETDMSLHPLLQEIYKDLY
Protocol: PPAR Activating Activity The agonist activity of the Compound a and the Compound b on PPAR was measured based on the transfection assay using COS7 cells (DS Pharma Biomedical Co., Ltd., Osaka, Japan), which are the cell line derived from the kidney of the African green monkey. COS7 cells were cultured under 5% CO2 concentration, and DMEM medium containing 10% fetal bovine serum, glutamic acid, and antibiotics was used as a medium. As an expression vector, a chimera in which DNA binding domain of Gal4 which is a yeast transcription factor, and ligand binding domain of human PPAR 2 are fused, i.e., a fused product between the amino acids 1 to 147 of Gal4 transcription factor and the amino acids 182 to 505 of human PPAR 2, was used. Furthermore, as a reporter vector, a firefly luciferase containing five copies of Gal4 recognition sequence in the promoter region was used. Plasmid transfection of the cells was performed according to a method which uses jetPEI (trade name, manufactured by Funakoshi Co., Ltd., Tokyo, Japan). […] After that, the luciferase activity and -galactosidase activity in the cell lysis solution were measured. […] The percentage of the luciferase activity of the Compound a or the Compound b (1 to 30 mol/L) was calculated when the luciferase activity of Rosiglitazone (3 to 10 mol/L) is 100% and the luciferase activity in the absence of the Compound a or the Compound b is 0%. […]

[1] = tested on: angiotensin II-induced blood pressure increase; assay: Inhibitory activity on angiotensin II-induced blood pressure increase; format: in vivo; settings: male SD rat, FIG. 1
Protocol: Inhibitory Activity on Angiotensin II-Induced Blood Pressure Increase
The in vivo angiotensin II antagonist activity of the Compound a and the Compound B was evaluated by following, as an index, the blood pressure increase induced by intravenous injection of angiotensin II.
A male SD rat (10 to 12-week old) was anesthetized with pentobarbital, and a cannular for measuring blood pressure was inserted into the right femoral artery while a cannular for injecting angiotensin II was inserted into the right jugular vein, the cannulars were then fixed on the back side of the neck as exposed.
One day after the surgery, the rat was subjected to the test under unanaesthetized, unstrained, and unfasted condition. The artery cannular was connected to a blood pressure transducer, and the blood pressure and heart rate were continuously recorded on a polygraph with an aid of an amplifier. Once the blood pressure and heart rate are stabilized, angiotensin II (0.1 nmol/kg) was administered via the vein cannular. The angiotensin II was repeatedly administered until a stable hypertensive response is obtained. After that, the Compound a (1 mg/kg or 3 mg/kg) or the Compound B (3 mg/kg) was orally administered, and the hypertensive response induced by angiotensin II was observed over time until 24 hours after the administration. […]

- percentage of the luciferase activity (Rosiglitazone = 100%, absence of compound = 0%) (human PPAR 2): 24%
Structure (SMILES): CCCCc1nc(C)n(-c2ncc(OC)cn2)c(=O)c1Cc1ccc(-c2ccccc2-c2noc(=O)[nH]2)cc1 [Compound b, 3-{4′-{[6-butyl-3-(5-methoxypyrimidin-2-yl)-2-methylpyrimidin-4(3H)-on-5-yl]methyl}biphenyl-2-yl}-1,2,4-oxadiazol-5(4H)-one]
- effect of inhibiting the angiotensin II-induced blood pressure increase, compared with Compound a 3 mg/kg ([1]; oral 3 mg/kg): substantially the same degree as the administration of the Compound a with dosage of 3 mg/kg
- inhibitory action on angiotensin II-induced blood pressure increase, 24 hours after the administration ([1]; oral, Compound a 1 or 3 mg/kg, Compound B 3 mg/kg, 24 hours after administration): its effect was almost completely lost 24 hours after the administration
